Laboratory results from ChEMBL document CHEMBL1149976, “Novel, extended transition state mimic in HIV-1 protease inhibitors with peripheral C-2-symmetry” (Bioorg Med Chem Lett, 1994).
The source made the active and inactive calls. No cut-off for these calls is given here.

Assays:
[1] = target: Human immunodeficiency virus type 1 protease (Human immunodeficiency virus 1, UniProt Q72874); experiment: Binding affinity for HIV-1 protease
[2] = target: Human immunodeficiency virus type 1 protease (Human immunodeficiency virus 1) (UniProt Q72874); experiment: Percentage inhibition against HIV-1 protease was determined at a concentration of 12.5 uM
MT4 = experiment: Inhibition of HIV-1 induced cytopathic effect in HTLV1 transformed MT-4 cells.; assay type: functional; conditions: Homo sapiens, read-out: ED50 (the source's name)
[3] = target: Human immunodeficiency virus type 1 protease (Human immunodeficiency virus 1) (UniProt Q72874); experiment: Binding affinity against HIV-1 protease was determined at a concentration of 12.5 uM; Not active
[4] = target: Human immunodeficiency virus type 1 protease (Human immunodeficiency virus 1) (UniProt Q72874); experiment: Binding affinity against HIV-1 protease was determined at a concentration 12.5 uM; not active

| inhibition [2] | inhibition [3] | inhibition [4] | SMILES | Ki [1] | EC50 (MT4) |
| --- | --- | --- | --- | --- | --- |
|  |  |  | CC(C)C(NC(=O)OCc1ccccc1)C(=O)N[C@@H](Cc1ccccc1)[C@@H](C(=O)O)[C@H](O)[C@H](Cc1ccccc1)NC(=O)[C@@H](NC(=O)OCc1ccccc1)C(C)C (stereo partly specified) | 430 nM |  |
| 31% |  |  | CC(C)(C)[C@H](NC(=O)c1nc2ccccc2[nH]1)C(=O)N[C@@H](Cc1ccccc1)[C@@H](O)[C@H](CO)[C@H](Cc1ccccc1)NC(=O)[C@@H](NC(=O)c1nc2ccccc2[nH]1)C(C)(C)C |  | > 10 µM |
|  |  |  | CC(C)(C)C(NC(=O)OCc1ccccc1)C(=O)N[C@@H](Cc1ccccc1)[C@@H](CO)[C@H](O)[C@H](Cc1ccccc1)NC(=O)[C@@H](NC(=O)OCc1ccccc1)C(C)(C)C (single isomer, unassigned; diastereomer A) | 13 nM | 1.6 µM |
|  |  |  | CC(C)[C@H](NC(=O)OCc1ccccc1)C(=O)N[C@@H](Cc1ccccc1)[C@@H](O)[C@H](CO)[C@H](Cc1ccccc1)NC(=O)C(NC(=O)OCc1ccccc1)C(C)(C)C (stereo partly specified) | 16 nM | 2.5 µM |
|  |  |  | CC(C)[C@H](NC(=O)OCc1ccccc1)C(=O)N[C@@H](Cc1ccccc1)[C@H](O)[C@@H](CO)[C@H](Cc1ccccc1)NC(=O)OC(C)(C)C | 3700 nM | > 10 µM |
| 32% |  |  | CC(C)[C@H](NC(=O)OCc1ccccc1)C(=O)N[C@@H](Cc1ccccc1)[C@@H](O)[C@@H](CO)[C@H](Cc1ccccc1)NC(=O)[C@@H](CC(N)=O)NC(=O)OCc1ccccc1 |  | > 10 µM |
|  | inactive |  | COC(=O)[C@H]([C@@H](O)[C@H](Cc1ccccc1)NC(=O)[C@@H](NC(=O)OCc1ccccc1)C(C)C)[C@H](Cc1ccccc1)NC(=O)OC(C)(C)C |  |  |
|  |  |  | CC(C)(C)[C@H](NC(=O)CCc1nc2ccccc2[nH]1)C(=O)N[C@@H](Cc1ccccc1)[C@@H](O)[C@H](CO)[C@H](Cc1ccccc1)NC(=O)[C@@H](NC(=O)CCc1nc2ccccc2[nH]1)C(C)(C)C | 9 nM | 0.52 µM |
| 18% |  |  | CC(C)[C@H](NC(=O)OCc1ccccc1)C(=O)N[C@@H](Cc1ccccc1)[C@@H](O)[C@H](C(=O)O)[C@H](Cc1ccccc1)NC(=O)OC(C)(C)C |  |  |
| 39% |  |  | CC(C)[C@H](NC(=O)OCc1ccccc1)C(=O)N[C@@H](Cc1ccccc1)[C@H](O)[C@@H](CO)[C@H](Cc1ccccc1)NC(=O)C(NC(=O)OCc1ccccc1)C(C)(C)C (single isomer, unassigned; diastereomer B) |  | > 10 µM |
|  |  |  | CC(C)(C)[C@H](NC(=O)CCc1nc2ccccc2[nH]1)C(=O)N[C@@H](Cc1ccccc1)[C@H](O)[C@@H](CO)[C@H](Cc1ccccc1)NC(=O)[C@@H](NC(=O)CCc1nc2ccccc2[nH]1)C(C)(C)C | 160 nM | > 10 µM |
| 20% |  |  | COC(=O)[C@@H]([C@H](O)[C@H](Cc1ccccc1)NC(=O)[C@@H](NC(=O)OCc1ccccc1)C(C)C)[C@H](Cc1ccccc1)NC(=O)OC(C)(C)C |  |  |
|  |  |  | CC(C)(C)[C@H](NC(=O)OCc1nc2ccccc2[nH]1)C(=O)N[C@@H](Cc1ccccc1)[C@H](O)[C@@H](CO)[C@H](Cc1ccccc1)NC(=O)[C@@H](NC(=O)OCc1nc2ccccc2[nH]1)C(C)(C)C | 29 nM | 4.7 µM |
|  |  |  | CC(C)[C@H](NC(=O)OCc1ccccc1)C(=O)N[C@@H](Cc1ccccc1)[C@@H](O)[C@H](CO)[C@H](Cc1ccccc1)NC(=O)[C@H](CC(N)=O)NC(=O)OCc1ccccc1 | 340 nM | > 10 µM |
|  |  | inactive | CC(C)[C@H](NC(=O)OCc1ccccc1)C(=O)N[C@@H](Cc1ccccc1)[C@H](O)[C@@H](C(=O)O)[C@H](Cc1ccccc1)NC(=O)OC(C)(C)C |  |  |
| 22% |  |  | CC(C)(C)[C@H](N)C(=O)N[C@@H](Cc1ccccc1)[C@@H](O)[C@H](CO)[C@H](Cc1ccccc1)NC(=O)[C@@H](N)C(C)(C)C |  | > 10 µM |
|  |  |  | CC(C)(C)C(NC(=O)OCc1ccccc1)C(=O)N[C@@H](Cc1ccccc1)[C@H](CO)[C@@H](O)[C@H](Cc1ccccc1)NC(=O)[C@@H](NC(=O)OCc1ccccc1)C(C)(C)C (single isomer, unassigned; diastereomer B) | 255 nM | > 10 µM |
|  |  |  | CC(C)C(NC(=O)OCc1ccccc1)C(=O)N[C@@H](Cc1ccccc1)[C@@H](CO)[C@H](O)[C@H](Cc1ccccc1)NC(=O)[C@@H](NC(=O)OCc1ccccc1)C(C)C (single isomer, unassigned; diastereomer A) | 27 nM | 3.7 µM |
|  |  |  | CC(C)(C)[C@H](NC(=O)OCc1nc2ccccc2[nH]1)C(=O)N[C@@H](Cc1ccccc1)[C@@H](O)[C@H](CO)[C@H](Cc1ccccc1)NC(=O)[C@@H](NC(=O)OCc1nc2ccccc2[nH]1)C(C)(C)C | 13 nM | 0.5 µM |
|  |  |  | CC(C)[C@H](NC(=O)OCc1ccccc1)C(=O)N[C@@H](Cc1ccccc1)[C@@H](O)[C@H](CO)[C@H](Cc1ccccc1)NC(=O)OC(C)(C)C | 290 nM | > 10 µM |
| 42% |  |  | CC(C)(C)[C@H](NC(=O)c1nc2ccccc2[nH]1)C(=O)N[C@@H](Cc1ccccc1)[C@H](O)[C@@H](CO)[C@H](Cc1ccccc1)NC(=O)[C@@H](NC(=O)c1nc2ccccc2[nH]1)C(C)(C)C |  | > 10 µM |
|  |  |  | CC(C)C(NC(=O)OCc1ccccc1)C(=O)N[C@@H](Cc1ccccc1)[C@H](CO)[C@@H](O)[C@H](Cc1ccccc1)NC(=O)[C@@H](NC(=O)OCc1ccccc1)C(C)C (single isomer, unassigned; diastereomer B) | 510 nM | > 10 µM |
| 8% |  |  | CC(C)(C)[C@H](N)C(=O)N[C@@H](Cc1ccccc1)[C@H](O)[C@@H](CO)[C@H](Cc1ccccc1)NC(=O)[C@@H](N)C(C)(C)C |  | > 10 µM |
